“And” between values parts separate entries of the source, which are not always exact repeats. Equal values may be shown once. Inconclusive results and toxic doses are left out. Cut-off read from the data, not from the text of the source: active = T/C of 150% or more; inactive = T/C below 125%.
Test system: L1210 leukemia ip in BDF1 mice, survival T/C
Experiment: NCI In Vivo Anticancer Drug Screen. Data for tumor model L1210 Leukemia (intraperitoneal) in B6D2F1 (BDF1) mice
Details: endpoint: mean survival time, higher = longer survival
Outline: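 Transplantable tumor model; survival measured in treated vs vehicle control mice. Value = treated/control.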

Measured: T/C

O=[N+]([O-])c1ccc(OCc2ccccc2)nc1
inactive: dose: 100.0 mg/kg/injection, schedule: Q01DX009 (ip), vehicle: saline with Tween-80 104 % of control | dose: 200.0 mg/kg/injection, schedule: Q01DX009 (ip), vehicle: saline with Tween-80 97 % of control | dose: 400.0 mg/kg/injection, schedule: Q01DX009 (ip), vehicle: saline with Tween-80 93 % of control

Clc1ccc(CC23CCCCC2N3)cc1 (stereo not given)
inactive: dose: 100.0 mg/kg/injection, schedule: Q04DX003 (ip), vehicle: saline sonified 95 % of control | dose: 200.0 mg/kg/injection, schedule: Q04DX003 (ip), vehicle: saline sonified 108 % of control | dose: 400.0 mg/kg/injection, schedule: Q04DX003 (ip), vehicle: saline sonified 105 % of control

Cc1cc(N(CCOS(C)(=O)=O)CCOS(C)(=O)=O)ccc1C=Nc1ccc2ccccc2c1
inactive: dose: 13.3 mg/kg/injection, schedule: Q04DX003 (ip), vehicle: Klucel (hydroxypropylcellulose) (HPC) 116 % of control | dose: 20.0 mg/kg/injection, schedule: Q04DX003 (ip), vehicle: Klucel (hydroxypropylcellulose) (HPC) 108 % of control and 117 % of control | dose: 80.0 mg/kg/injection, schedule: Q04DX003 (ip), vehicle: Klucel (hydroxypropylcellulose) (HPC) 112 % of control

CC(C)(C)NC(=O)C(Br)c1ccccc1 (stereo not given)
inactive: dose: 100.0 mg/kg/injection, schedule: Q04DX002 (ip), vehicle: saline with Tween-80 94 % of control | dose: 200.0 mg/kg/injection, schedule: Q04DX002 (ip), vehicle: saline with Tween-80 105 % of control | dose: 400.0 mg/kg/injection, schedule: Q04DX002 (ip), vehicle: saline with Tween-80 94 % of control

c1ccc(CSCCSCc2ccccc2)cc1
inactive: dose: 87.5 mg/kg/injection, schedule: Q01DX009 (ip), vehicle: other 95 % of control | dose: 175.0 mg/kg/injection, schedule: Q01DX009 (ip), vehicle: other 101 % of control | dose: 350.0 mg/kg/injection, schedule: Q01DX009 (ip), vehicle: other 104 % of control

— PubChem BioAssay AID248 (DTP/NCI, 2004)
